The values below come from ChEMBL document CHEMBL5331145, “Discovery of a Novel Bifunctional Steroid Analog, YXG-158, as an Androgen Receptor Degrader and CYP17A1 Inhibitor for the Treatment of Enzalutamide-Resistant Prostate Cancer” (J Med Chem, 2023).

As usually defined, the half-life is how long it takes for the measured level to halve. Read a high half-life as slow decline. As usually defined, the Tmax is the time from dosing to the highest level. Broadly, the Cmax is the maximum level reached in the sampled fluid or tissue. The clearance is a measure of how efficiently the substance is removed, as volume per time. Broadly, the bioavailability is dose-corrected exposure relative to a reference, in per cent.

The nature of series [1]: Half life in Sprague-Dawley rat at 10 mg/kg, po measured upto 24 hrs by LC-MS/MS analysis. Format: ADME, organism-based. As to conditions: in vivo.
Series [2] is described as follows: Half life in Sprague-Dawley rat at 5 mg/kg, iv measured upto 24 hrs by LC-MS/MS analysis. As to conditions: in vivo. The class given is ADME, organism-based.
The nature of series [3]: Half life in dog at 2 mg/kg, iv measured upto 24 hrs by LC-MS/MS analysis. The class given is ADME, organism-based, Canis lupus familiaris. As to conditions: in vivo.
The nature of series [4]: Tmax in Sprague-Dawley rat at 10 mg/kg, po measured upto 24 hrs by LC-MS/MS analysis. Format: ADME, organism-based. As to conditions: in vivo.
A short description of series [5]: Cmax in Sprague-Dawley rat at 10 mg/kg, po measured upto 24 hrs by LC-MS/MS analysis. The class given is ADME, organism-based. On the set-up: dose 10 mg/kg, time < 24 hrs, route po. The settings on record: in vivo.
Series [6] can be described thus: Cmax in Sprague-Dawley rat at 5 mg/kg, iv measured upto 24 hrs by LC-MS/MS analysis. The class given is ADME, organism-based. The settings on record: in vivo. Further details: dose 5 mg/kg, time < 24 hrs, route iv.
Series [7] can be described thus: Cmax in dog at 2 mg/kg, iv measured upto 24 hrs by LC-MS/MS analysis. Format: ADME, organism-based, Canis lupus familiaris. On the set-up: time < 24 hrs, dose 2 mg/kg, route iv. The settings on record: in vivo.
A short description of series [8]: AUC(0 to t) in Sprague-Dawley rat at 10 mg/kg, po measured upto 24 hrs by LC-MS/MS analysis. Format: ADME, organism-based. As to conditions: in vivo.
Series [9] is described as follows: AUC(0 to t) in Sprague-Dawley rat at 5 mg/kg, iv measured upto 24 hrs by LC-MS/MS analysis. Format: ADME, organism-based. As to conditions: in vivo.
The nature of series [10]: AUC(0 to t) in dog at 2 mg/kg, iv measured upto 24 hrs by LC-MS/MS analysis. The class given is ADME, organism-based, Canis lupus familiaris. The settings on record: in vivo.
Series [11] can be described thus: Clearance in Sprague-Dawley rat at 5 mg/kg, iv measured upto 24 hrs by LC-MS/MS analysis. The class given is ADME, organism-based. The settings on record: in vivo.
Series [12] in a line: Clearance in dog at 2 mg/kg, iv measured upto 24 hrs by LC-MS/MS analysis. The class given is ADME, organism-based, Canis lupus familiaris. The settings on record: in vivo.
Series [13] is described as follows: Volume of distribution at steady state in Sprague-Dawley rat at 5 mg/kg, iv measured upto 24 hrs by LC-MS/MS analysis. The settings on record: in vivo, read-out: Vdss. The class given is ADME, organism-based.
A short description of series [14]: Volume of distribution at steady state in dog at 2 mg/kg, iv measured upto 24 hrs by LC-MS/MS analysis. Format: ADME, organism-based, Canis lupus familiaris. As to conditions: in vivo, read-out: Vdss.
Series [15] in a line: Oral bioavailability in Sprague-Dawley rat at 10 mg/kg measured upto 24 hrs by LC-MS/MS analysis. The class given is ADME, organism-based. The settings on record: in vivo.
Series [16] can be described thus: Cmax in dog at 10 mg/kg, po measured upto 24 hrs by LC-MS/MS analysis. The class given is ADME, organism-based, Canis lupus familiaris. On the set-up: dose 10 mg/kg, time < 24 hrs, route po. The settings on record: in vivo.
The nature of series [17]: Half life in dog at 10 mg/kg, po measured upto 24 hrs by LC-MS/MS analysis. The class given is ADME, organism-based, Canis lupus familiaris. As to conditions: in vivo.
The nature of series [18]: Tmax in dog at 10 mg/kg, po measured upto 24 hrs by LC-MS/MS analysis. Format: ADME, organism-based, Canis lupus familiaris. As to conditions: in vivo.
Series [19] is described as follows: AUC(0 to t) in dog at 10 mg/kg, po measured upto 24 hrs by LC-MS/MS analysis. The class given is ADME, organism-based, Canis lupus familiaris. The settings on record: in vivo.
Series [20] is described as follows: Oral bioavailability in dog at 10 mg/kg measured upto 24 hrs by LC-MS/MS analysis. The class given is ADME, organism-based, Canis lupus familiaris. As to conditions: in vivo.

Turning to `Cc1cn(C2=CCC3C4CC=C5C[C@@H](NC(=O)c6ccc(F)cc6)CC[C@]5(C)C4CC[C@]23C)cn1.Cl` (stereo not given in full), the half-life in series [1] was 6.82 h; in series [2], 6.39 h; in [3], 5.15 h; in [17], 12.4 h. Also, the Tmax is 0.83 h in series [4] and 6 h in series [18]. The Cmax in series [5] stood at 8800 ng/mL; in [6], 14300 ng/mL; in series [7] it was 1860 ng/mL; in [16], 907 ng/mL. Further, the AUCt worked out at 84338 h/ng/mL in series [8], 45408 h/ng/mL in [9], 4737 h/ng/mL in series [10] and 10460 h/ng/mL in [19]. Further, the clearance in series [11] stood at 1.82 mL/min/kg; in [12], 6.86 mL/min/kg. For the same compound, the figures for the Vd in series [13] and in series [14] were 0.77 L/kg and 1.92 L/kg, respectively. In addition, the bioavailability in series [15] is 93%; in [20], 44%.
